Series [1] is described as follows: Prodrug conversion in Sprague-Dawley rat assessed as AUC (0 to t) of (2-(benzo[c][1,2,5]oxadiazol-5-ylmethoxy)-5-chloro-4-((2-fluoro-3'-(3-(4-hydroxypiperidin-1-yl)propoxy)-[1,1'-biphenyl]-3-yl)methoxy)benzyl)-D-serine at 45 mg/kg, po measured upto 24 hrs by LC-MS/MS analysis. The following applies: in vivo. In kind it is ADME, organism-based.
Series [2] in a line: Prodrug conversion in Sprague-Dawley rat assessed as oral bioavailability of (2-(benzo[c][1,2,5]oxadiazol-5-ylmethoxy)-5-chloro-4-((2-fluoro-3'-(3-(4-hydroxypiperidin-1-yl)propoxy)-[1,1'-biphenyl]-3-yl)methoxy)benzyl)-D-serine at 45 mg/kg measured upto 24 hrs by LC-MS/MS analysis. In kind it is ADME, organism-based. The following applies: in vivo.
Series [3] in a line: Prodrug conversion in C57BL/6 mouse assessed as half life of (2-(benzo[c][1,2,5]oxadiazol-5-ylmethoxy)-5-chloro-4-((2-fluoro-3'-(3-(4-hydroxypiperidin-1-yl)propoxy)-[1,1'-biphenyl]-3-yl)methoxy)benzyl)-D-serine at 2 mg/kg, iv measured upto 24 hrs by LC-MS/MS analysis. In kind it is ADME, organism-based. The following applies: in vivo.
Series [4] can be described thus: Prodrug conversion in C57BL/6 mouse assessed as AUC (0 to t) of (2-(benzo[c][1,2,5]oxadiazol-5-ylmethoxy)-5-chloro-4-((2-fluoro-3'-(3-(4-hydroxypiperidin-1-yl)propoxy)-[1,1'-biphenyl]-3-yl)methoxy)benzyl)-D-serine at 2 mg/kg, iv measured upto 24 hrs by LC-MS/MS analysis. The following applies: in vivo. The series is classed as ADME, organism-based.
Series [5] can be described thus: Prodrug conversion in C57BL/6 mouse assessed as half life of (2-(benzo[c][1,2,5]oxadiazol-5-ylmethoxy)-5-chloro-4-((2-fluoro-3'-(3-(4-hydroxypiperidin-1-yl)propoxy)-[1,1'-biphenyl]-3-yl)methoxy)benzyl)-D-serine at 10 mg/kg, po measured upto 24 hrs by LC-MS/MS analysis. In kind it is ADME, organism-based. The following applies: in vivo.
Series [6] in a line: Lipophilicity, log D of the compound at pH 7.4. The series is classed as physicochemical. The conditions noted are these: buffer.
Series [7] has as its system CT26. In words: Antitumor activity against mouse CT26 cells implanted in BALB/c mouse assessed as tumor growth inhibition at 25 mg/kg, ip measured for 18 days. The series is classed as functional. The conditions noted are these: CT26, 432 h, time 18 day, read-out: TGI.
For series [8], the system named is CT26. In words: Antitumor activity against mouse CT26 cells implanted in BALB/c mouse assessed as increase in percentage of CD8+ cells at 25 mg/kg, ip measured for 20 days. The conditions noted are these: time 20 day. In kind it is functional.
For series [9], the system named is CT26. In words: Antitumor activity against mouse CT26 cells implanted in BALB/c mouse assessed as reduction in Treg lymphocyte at 25 mg/kg, ip measured for 20 days. The series is classed as functional, organism-based. The following applies: time 20.0 day.
The test system of series [10] is CT26. In words: Antitumor activity against mouse CT26 cells implanted in BALB/c mouse assessed as increase in INF-gamma level at 25 mg/kg, ip measured for 20 days. In kind it is functional, organism-based. The conditions noted are these: time 20.0 day.

Activity calls are given as the source filed them. The rule behind the calls is not given here.

The term logD denotes lipophilicity at a set pH, counting ionised and neutral species. High values mean a more lipophilic compound, low ones a more hydrophilic compound.

Take `CCOC(=O)[C@@H](CO)NCc1cc(Cl)c(OCc2cccc(-c3cccc(OCCCN4CCC(O)CC4)c3)c2F)cc1OCc1ccc2nonc2c1.Cl.Cl`: the AUCt amounted to 405.6 ng·h/mL in [1] and 531.6 ng·h/mL in series [4]. Further, the F in [2] is on record as 3.4%. The t1/2 in series [3] turned out to be 1.7 h; in series [5], 1.6 h. The logD in [6] was 1.59. Also, the inhibition in vivo at 25 mg/kg in series [7] was 54.8%. Moreover, the Activity in [8] turned out to be 7.2%. Further, the outcome in series [9] and in series [10] was Active.

Source of the values: ChEMBL document CHEMBL5518218, “Discovery of Novel PD-L1 Small-Molecular Inhibitors with Potent In Vivo Anti-tumor Immune Activity” (J Med Chem, 2024).
